Experimental data reported in US10808247B2, “Methods for treating neurological disorders using a synergistic small molecule and nucleic acids therapeutic approach” (Phio Pharmaceuticals Corp., priority 2015, dated 2020).

How the values were obtained:
[1] = test system: Primary cortical neurons; assay: Neurotoxicity induced by H2O2 in primary cortical neurons; format: cell-based; conditions: 24 h pretreatment, 80 μM H2O2
Procedure: (§1) FIGS. 4A-4F. SYN1 and SYN2 increase the expression and activity of NF-κB target genes, such as MnSOD in neurons. […] A commercially available kit, modified to detect MnSOD activity in primary neurons, was used. Neurons were exposed to 3 mM SYN1 or 300 nM SYN2 for 24 h. […] TNF-α was included as a reference. FIGS. 4B, 4D and 4F show SYN1 and SYN2 increase MnSOD protein expression. Mature primary neurons (FIG. 4B), SH-SY5Y cells (FIG. 4D), and NSC-34 cells (FIG. 4F) were treated for 24 h with the compounds. Thereafter, cells were lysed, and proteins were extracted and subjected to SDS-PAGE. Immunoblots were then performed following the instructions of the antibody manufacturer. ECL was used for detection. […] The effect of TNF exposure is provided for reference. […] Primary cortical neurons at 6 D.I.V. were pretreated for 24 h with compounds and then challenged with 80 μM of H2O2. […] SYN1 at 3 μM inhibited cell death by 100%. […] The protection exceeded 60% and extended up to a concentration of 1 μM. […] NSC-34 cells were treated for 24 h with the compounds. Thereafter, cells were lysed, and cytosolic and nuclear fractions were separated. Subsequently, SDS-PAGE and immunoblots were performed. ECL was used for detection. […] The effect of TNF exposure was provided for reference. […] ANOVA+Bonferroni's.

[2] = test system: MnSOD; assay: MnSOD protein expression by immunoblot in neurons; format: cell-based; conditions: 24 h; for MnSOD expression by Western blot: NSC-34 cells; for MnSOD protein expression: mature primary neurons, SH-SY5Y cells and NSC-34 cells
Procedure: as §1

[3] = test system: MnSOD; assay: MnSOD activity in primary neurons (modified commercial kit); format: cell-based; conditions: 3 mM SYN1 or 300 nM SYN2 for 24 h
Procedure: as §1

[4] = test system: SOD-1-G93A ALS mouse; assay: SOD-1-G93A ALS mouse: survival, weight, neurologic score; format: in vivo; conditions: for survival (Kaplan-Meier analysis): administration at the time of onset; for body weight lost / inhibition of body weight loss: at 120 days; for inhibition of body weight loss: versus control animals; for lifespan extension at 50% survival: male mice, 25 mg/kg IP daily from day 96
Procedure: FIGS. 6A-6D. Effect of SYN1 and SYN2 in SOD-1-G93A ALS mouse. The animals were received at day 70 and kept until day 96, at which time daily IP treatment was started with 25 mg/kg of the compounds. Weight and standard neurologic scores (N.S.) were assessed on alternate days. A N.S. of 4 triggered the exception (euthanized accordingly to humane practices). […] Data in FIGS. 6A and 6B document a 66% and an 81% lifespan extension for SYN1 and SYN2, respectively, at 50% survival in male mice. […] The average weight within the groups before the treatment was similar (inset to FIG. 6C). However, at 120 days, control animals lost on average 12% of the body weight (FIG. 6C). […] Although progression from N.S. 0 to 1 was delayed only by SYN1 (2 day delay, +30%), progression to higher N.S. was delayed by both agents (FIG. 6D). […] Control animals reached N.S.=2 at 30 days on average; treated animals reached N.S.=2 at day 46 or later on average. *P<0.05; **P<0.01.

[5] = test system: HSP27; assay: Cytoplasmic chaperone expression by qPCR in SH-5YSY; format: cell-based; conditions: 24 h treatment
Procedure: (§2) FIG. 5. Effect of SYN1 on cytoplasmic chaperones expression. The expression of the genes listed in the graph was assessed using qPCR in SH-5YSY after 24 h treatment with SYN1.

[6] = test system: HSP-dependent mRNAs; assay: as above; format: cell-based; conditions: 24 h treatment
Procedure: as §2

[7] = test system: HSP70-2; assay: as above; format: cell-based; conditions: 24 h treatment
Procedure: as §2

[8] = test system: NF-κB p65; assay: NF-κB p65 nuclear translocation in NSC-34 immortalized motoneurons, immunoblot; format: cell-based; conditions: NSC-34 cells, 24 h
Procedure: as §1

O=C(/C=C/Nc1ccccc1Br)c1ccc2c(c1)OCO2 [SYN1]
inhibition of cell death ([1]; 3 μM): 100%
MnSOD expression by Western blot [2]: increased expression of MnSOD
MnSOD protein expression [2]: increased MnSOD expression in all three kinds of neurons
MnSOD activity [3]: significantly increased
delay of progression from N.S. 0 to 1 ([4]; 25 mg/kg IP daily): 2 days
delay of progression from N.S. 0 to 1, relative ([4]; 25 mg/kg IP daily): 30%
time spent at N.S.1 ([4]; 25 mg/kg IP daily): increased the time spent at N.S.1
survival (Kaplan-Meier analysis) ([4]; 25 mg/kg IP daily): significantly extended survival
body weight lost ([4]; 25 mg/kg IP daily): 3%
inhibition of body weight loss [4]: 75%
lifespan extension at 50% survival [4]: 66%
HSP27 gene expression [5]: significantly up-regulated
HSP-dependent mRNAs [6]: significantly increased
HSP70-2 gene expression [7]: significantly up-regulated
p65 nuclear presence [8]: increased p65 nuclear presence

Cc1cccnc1Nc1nc(-c2ccccn2)cs1 [SYN2]
concentration of peak effect [1]: 300 nM
concentration up to which protection extended [1]: ≤ 1 µM
protection [1]: exceeded 60%
MnSOD expression by Western blot [2]: increased expression of MnSOD
MnSOD protein expression [2]: increased MnSOD expression in all three kinds of neurons
MnSOD activity [3]: significantly increased
time spent at N.S.1 ([4]; 25 mg/kg IP daily): increased the time spent at N.S.1
survival (Kaplan-Meier analysis) ([4]; 25 mg/kg IP daily): significantly extended survival
body weight lost ([4]; 25 mg/kg IP daily): 4%
inhibition of body weight loss [4]: 65%
lifespan extension at 50% survival [4]: 81%
p65 nuclear presence [8]: increased p65 nuclear presence
